Assay results published in patent publication US9427468B2, “Compositions and methods for diagnosing and treating community-acquired methicillin-resistant Staphylococcus aureus” (priority 2007, dated 2016).
In brackets after ≈: the same amount, converted by molar mass.

What was measured:
PBP4 = conditions: cited from earlier work
CA- and HA-MRSA strains = assay: Synergy assay, cefuroxime with two-fold dilutions of oxacillin; type: cell-based, Staphylococcus aureus; conditions: in combination with two-fold dilutions of oxacillin
Experimental: (§1) Minimum inhibitory concentrations and minimum bactericidal concentrations (MIC and MBC, respectively) were determined for each isolate in triplicate by microdilution techniques with an inoculum of 5×10^5 CFU/ml according to the Clinical and Laboratory Standards Institute guidelines. Aliquots (5 μl) from clear wells were plated onto TSA drug-free plates for the determination of MBCs, followed by incubation at 37° C. for 24 and 48 hours. For the mutant strains, each one of the three clones was tested. MIC data were reported as median values from at least three independent experiments for each antibiotic. Also, strains containing pEPSA5-based plasmids were tested with and without xylose induction, but chloramphenicol was not added to avoid interference with beta-lactam resistance evaluation. […] The correct inocula were confirmed by plating serial dilutions on agar.

USA300 wild-type = assay: MIC by microdilution (CLSI); type: cell-based, Staphylococcus aureus; conditions: Staphylococcus aureus, USA300, read-out: MICs
Source text: (§2) The present invention was described based on a series of experiments examining the biological basis for CA-MRSA strains versus HA-MRSA strains, focusing on the role of PBPs in CA-MRSA and generally in β-lactam resistance. Experiments were first performed using mutants of various PBPs. In-frame deletion mutants of the genes encoding PBP3 (MW1504) and PBP4 (MW0604), pbp3 and pbp4 respectively, were generated in the CA-MRSA strain MW2 and in HA-MRSA strain COL using the temperature-sensitive allelic replacement vector pMAD (Arnaud, M. et al. 2004. Appl. Environ. Microbiol. 70:6887-6891). PBP4 was also deleted in the HA-MRSA strains Mu50 and N315 and in the CA-MRSA strain USA300. […] Minimum inhibitory concentrations (MICs) were determined according to the Clinical and Laboratory Standards Institute and are a standard method for defining antibiotic efficacy against different organisms. Bacteria, grown to an OD650=1, were added to cation-supplemented Mueller Hinton broth (CSMHB) to achieve a final concentration of 5×10^5 CFU/ml.
(§3) Although PBP4, similar to PBP2A, binds with low affinity to many β-lactams, PBP4 binds cefoxitin, a semi-synthetic β-lactam derived from cephamycin C, with high affinity (Nair, S. R. and C. E. Cherubin. 1978. Antimicrob. Agents Chemother. 14:866-875).
as §1

COL wild-type = assay: MIC by microdilution (CLSI); type: cell-based, Staphylococcus aureus; conditions: Staphylococcus aureus, read-out: MICs
Source text: as §2, §3, §1

MW2 (USA400) wild-type = assay: MIC by microdilution (CLSI); type: cell-based, Staphylococcus aureus; conditions: Staphylococcus aureus, USA400, read-out: MICs
Source text: as §2, §3, §1

MW2 ex Δpbp3/4 = assay: MIC by microdilution (CLSI); type: cell-based, Staphylococcus aureus; conditions: Staphylococcus aureus, read-out: MICs
Source text: as §2, with “Experiments” for “The present invention was described based on a series of experiments examining the biological basis for CA-MRSA strains versus HA-MRSA strains, focusing on the role of PBPs in CA-MRSA and generally in β-lactam resistance. Experiments”
as §1

Mu50 wild-type = assay: MIC by microdilution (CLSI); type: cell-based, Staphylococcus aureus; conditions: Staphylococcus aureus, read-out: MICs
Source text: as §2, with “Experiments” for “The present invention was described based on a series of experiments examining the biological basis for CA-MRSA strains versus HA-MRSA strains, focusing on the role of PBPs in CA-MRSA and generally in β-lactam resistance. Experiments”
as §1

[1] = system: MW2 ex (MW2 cured of plasmid pMW2); assay: MIC by microdilution (CLSI); type: cell-based; conditions: Staphylococcus aureus, Table 1
Source text: as §2, with “Experiments” for “The present invention was described based on a series of experiments examining the biological basis for CA-MRSA strains versus HA-MRSA strains, focusing on the role of PBPs in CA-MRSA and generally in β-lactam resistance. Experiments”
as §1

MW2 ex Δpbp3 = assay: MIC by microdilution (CLSI); type: cell-based; conditions: Staphylococcus aureus, read-out: MICs
Source text: as §2, with “Experiments” for “The present invention was described based on a series of experiments examining the biological basis for CA-MRSA strains versus HA-MRSA strains, focusing on the role of PBPs in CA-MRSA and generally in β-lactam resistance. Experiments”
as §1

MW2 ex Δpbp4 = assay: MIC by microdilution (CLSI); type: cell-based, Staphylococcus aureus; conditions: Staphylococcus aureus, read-out: MICs
Source text: as §2, §1

MW2 Δpbp3/4 = assay: MIC by microdilution (CLSI); type: cell-based, Staphylococcus aureus; conditions: Staphylococcus aureus, read-out: MICs
Source text: as §2, §1

MW2 Δpbp4 = assay: MIC by microdilution (CLSI); type: cell-based, Staphylococcus aureus
Source text: as §2, §1

MW2 Δpbp3 = assay: MIC by microdilution (CLSI); type: cell-based, Staphylococcus aureus; conditions: Staphylococcus aureus, read-out: MICs
Source text: as §2, §1

MW2 Δpbp4::pbp4 = assay: MIC by microdilution (CLSI); type: cell-based, Staphylococcus aureus; conditions: Staphylococcus aureus, read-out: MICs
Source text: as §2, §1

USA300 Δpbp4 = assay: MIC by microdilution (CLSI); type: cell-based, Staphylococcus aureus
Source text: as §2, §1

N315 wild-type = assay: MIC by microdilution (CLSI); type: cell-based, Staphylococcus aureus; conditions: Staphylococcus aureus, read-out: MICs
Source text: as §2, §1

| Structure (SMILES) | affinity for PBP4 (PBP4) | effect on oxacillin MICs (CA- and HA-MRSA strains) | MIC (USA300 wild-type) [mg/L] | MIC (COL wild-type) [mg/L] | MIC (MW2 (USA400) wild-type) [mg/L] | MIC (MW2 ex Δpbp3/4) [mg/L] | MIC (Mu50 wild-type) [mg/L] | MIC [1] [mg/L] | MIC (MW2 ex Δpbp3) [mg/L] | MIC (MW2 ex Δpbp4) [mg/L] | MIC (MW2 Δpbp3/4) [mg/L] | MIC (MW2 Δpbp4; Staphylococcus aureus, read-out: MICs) [mg/L] | reduction in MIC on loss of pbp4 (MW2 Δpbp4; {}) [fold] | MIC (MW2 Δpbp3) [mg/L] | MIC (MW2 Δpbp4::pbp4) [mg/L] | MIC (USA300 Δpbp4; Staphylococcus aureus, USA300, read-out: MICs) [mg/L] | reduction in MIC on loss of pbp4 (USA300 Δpbp4; {}) [fold] | MIC (N315 wild-type) [mg/L] |
| --- | --- | --- | --- | --- | --- | --- | --- | --- | --- | --- | --- | --- | --- | --- | --- | --- | --- | --- |
| CO/N=C(\C(=O)N[C@@H]1C(=O)N2C(C(=O)O)=C(COC(N)=O)CS[C@H]12)c1ccco1 [Cefuroxime, cefuroxime] | very low affinity | no effect whatsoever |  |  |  |  |  |  |  |  |  |  |  |  |  |  |  |  |
| CCOc1ccc2ccccc2c1C(=O)N[C@@H]1C(=O)N2[C@@H]1SC(C)(C)[C@@H]2C(=O)O [NF, nafcillin] |  |  | 16 (≈ 38.6 µM) | 64 (≈ 154 µM) | 16 (≈ 38.6 µM) | 1 (≈ 2.41 µM) | 256 (≈ 618 µM) | 16 (≈ 38.6 µM) | 16 (≈ 38.6 µM) | 1 (≈ 2.41 µM) | 1 (≈ 2.41 µM) | 1 (≈ 2.41 µM) | 16 | 16 (≈ 38.6 µM) | 16 (≈ 38.6 µM) | 1 (≈ 2.41 µM) | 16 | 64 (≈ 154 µM) |
| CN(C)CCn1nnnc1SCC1=C(C(=O)O)N2C(=O)[C@@H](NC(=O)Cc3csc(N)n3)[C@H]2SC1 [cefotiam] | no affinity |  |  |  |  |  |  |  |  |  |  |  |  |  |  |  |  |  |
